Reference: patent publication US12310975B2, “Modulators of BCL6 proteolysis and associated methods of use” (Arvinas Operations, Inc., priority 2019, dated 2025)

How the values were obtained:
[1] = target: T1, BCL6 (Homo sapiens (Human), UniProt P41182); experiment: BCL6 TR-FRET assay (BCL6-Avitag-Biotin / BCoR-Cy5 peptide); type: binding; settings: for IC50: class symbols A-D, read-out: IC50 (nM)***
In short: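 TR-FRET displacement assay: biotinylated His-SUMO-BCL6-Avitag (2 nM) pre-incubated 30 min at room temperature with compound (12-point 3-fold titration), then BCoR-Cy5 peptide (100 nM) and Eu-streptavidin (2 nM) added. Buffer: 50 mM HEPES pH 7.5, 125 mM NaCl, 0.01% Triton X, glutathione or DTT, 0.03% BSA. Read after 2 h.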

[2] = target: T1, BCL6; experiment: Immunofluorescence high content imaging of BCL6 degradation in T47D cells; type: cell-based; settings: for Dmax: T47D; for DC50: class symbols A-D, read-out: EC50 (nM)*
In short: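 Seed T47D in RPMI1640-10% FBS to reach ~70-90% confluence at endpoint; add degrader next day (11-point 3-fold series, top 0.1 or 1 μM final) for 3 days. Then fix, permeabilize, stain BCL6 with nuclear Hoechst, and image.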

IC50 [1] | Dmax ([2]; maximum, class symbols A-C) | DC50 [2] | EC50 [1] | IC50 [2] | Dmax [2] | Compound
10 to 50 nM | < 50% | 10 to 50 nM |  |  |  | CC(=O)COc1cc2cc(Nc3nc(C#CC4CCN(c5ccc6c(c5)C(=O)N(C5CCC(=O)NC5=O)C6=O)CC4)ncc3Cl)ccc2n(C)c1=O (centres unmarked) [compound 171, 5-(4-((5-chloro-4-((1-methyl-2-oxo-3-(2-oxopropoxy)-1,2-dihydroquinolin-6-yl)amino)pyrimidin-2-yl)ethynyl)piperidin-1-yl)-2-(2,6-dioxopiperidin-3-yl)isoindoline-1,3-dione]
10 to 50 nM | 50 to 70% |  |  |  |  | CNC(=O)/C=C/c1cc2cc(Nc3nc(N4CCC(CN5CCN(c6ccc7c(c6)C(=O)N(C6CCC(=O)NC6=O)C7=O)CC5)CC4)ncc3Cl)ccc2n(C)c1=O (centres unmarked) [compound 174, (E)-3-(6-((5-chloro-2-(4-((4-(2-(2,6-dioxopiperidin-3-yl)-1,3-dioxoisoindolin-5-yl)piperazin-1-yl)methyl)piperidin-1-yl)pyrimidin-4-yl)amino)-1-methyl-2-oxo-1,2-dihydroquinolin-3-yl)-N-methylacrylamide]
 |  |  | 10 to 50 nM | ≥ 100 nM | 50 to 70% | CC(=O)COc1cc2cc(Nc3nc(N4CCN(C)C(COc5ccc6c(c5)C(=O)N(C5CCC(=O)NC5=O)C6=O)C4)ncc3Cl)ccc2n(C)c1=O (centres unmarked) [compound 194, 5-((4-(5-chloro-4-((1-methyl-2-oxo-3-(2-oxopropoxy)-1,2-dihydroquinolin-6-yl)amino)pyrimidin-2-yl)-1-methylpiperazin-2-yl)methoxy)-2-(2,6-dioxopiperidin-3-yl)isoindoline-1,3-dione]
 |  |  | 10 to 50 nM | 10 to 50 nM | 50 to 70% | CNC(=O)COc1cc2cc(Nc3nc(N4CCC(CN5CCN(c6ccc7c(c6)C(=O)N(C6CCC(=O)NC6=O)C7=O)CC5=O)CC4)ncc3Cl)ccc2n(C)c1=O (centres unmarked) [compound 196, 2-((6-((5-chloro-2-(4-((4-(2-(2,6-dioxopiperidin-3-yl)-1,3-dioxoisoindolin-5-yl)-2-oxopiperazin-1-yl)methyl)piperidin-1-yl)pyrimidin-4-yl)amino)-1-methyl-2-oxo-1,2-dihydroquinolin-3-yl)oxy)-N-methylacetamide]
 |  |  | > 100 nM | 50 to 100 nM | 50 to 70% | CCNC(=O)COc1cc2cc(Nc3nc(N4CCC(CN5CCN(c6ccc7c(c6)C(=O)N(C6CCC(=O)NC6=O)C7=O)CC5)CC4)ncc3Cl)ccc2n(C)c1=O (centres unmarked) [compound 198, 2-((6-((5-chloro-2-(4-((4-(2-(2,6-dioxopiperidin-3-yl)-1,3-dioxoisoindolin-5-yl)piperazin-1-yl)methyl)piperidin-1-yl)pyrimidin-4-yl)amino)-1-methyl-2-oxo-1,2-dihydroquinolin-3-yl)oxy)-N-ethylacetamide]
 |  |  | 10 to 50 nM | ≥ 100 nM | ≥ 70% | CNC(=O)COc1cc2cc(Nc3nc(N4CCN(CC5CCN(c6ccc7c(c6)C(=O)N(C6CCC(=O)NC6=O)C7=O)CC5)C(=O)C4)ncc3Cl)ccc2n(C)c1=O (centres unmarked) [compound 201, 2-((6-((5-chloro-2-(4-((1-(2-(2,6-dioxopiperidin-3-yl)-1,3-dioxoisoindolin-5-yl)piperidin-4-yl)methyl)-3-oxopiperazin-1-yl)pyrimidin-4-yl)amino)-1-methyl-2-oxo-1,2-dihydroquinolin-3-yl)oxy)-N-methylacetamide]
 |  |  | > 100 nM | 50 to 100 nM | < 50% | CNC(=O)COc1cc2cc(Nc3nc(N4CCC(CN5CCN(c6ccc7c(c6)C(=O)N(C6CCC(=O)NC6=O)C7=O)CC5)CC4)ccc3Cl)ccc2n(C)c1=O (centres unmarked) [compound 202, 2-((6-((3-chloro-6-(4-((4-(2-(2,6-dioxopiperidin-3-yl)-1,3-dioxoisoindolin-5-yl)piperazin-1-yl)methyl)piperidin-1-yl)pyridin-2-yl)amino)-1-methyl-2-oxo-1,2-dihydroquinolin-3-yl)oxy)-N-methylacetamide]
 |  |  | > 100 nM | < 10 nM | ≥ 70% | CNC(=O)COc1cc2cc(Nc3nc(N4CCN(C(C)(C)C5CCN(c6ccc7c(c6)C(=O)N(C6CCC(=O)NC6=O)C7=O)CC5)CC4)ncc3Cl)ccc2n(C)c1=O (centres unmarked) [compound 203, 2-((6-((5-chloro-2-(4-(2-(1-(2-(2,6-dioxopiperidin-3-yl)-1,3-dioxoisoindolin-5-yl)piperidin-4-yl)propan-2-yl)piperazin-1-yl)pyrimidin-4-yl)amino)-1-methyl-2-oxo-1,2-dihydroquinolin-3-yl)oxy)-N-methylacetamide]

Further lines, the compound ahead of its results:

Compound | IC50 [1] | Dmax ([2]; maximum, class symbols A-C) | DC50 [2] | EC50 [1] | IC50 [2] | Dmax [2]
CC(=O)COc1cc2cc(Nc3nc(N4CC(OCCN5CCN(c6ccc7c(c6)C(=O)N(C6CCC(=O)NC6=O)C7=O)CC5)C4)ncc3Cl)ccc2n(C)c1=O (centres unmarked) [compound 172, 5-(4-(2-((1-(5-chloro-4-((1-methyl-2-oxo-3-(2-oxopropoxy)-1,2-dihydroquinolin-6-yl)amino)pyrimidin-2-yl)azetidin-3-yl)oxy)ethyl)piperazin-1-yl)-2-(2,6-dioxopiperidin-3-yl)isoindoline-1,3-dione] | ≥ 100 nM |  | > 100 nM |  |  | 
CC(=O)COc1cc2cc(Nc3nc(C#CC4CCCN(Cc5ccc6c(c5)C(=O)N(C5CCC(=O)NC5=O)C6=O)C4)ncc3Cl)ccc2n(C)c1=O (centres unmarked) [compound 173, 5-((3-((5-chloro-4-((1-methyl-2-oxo-3-(2-oxopropoxy)-1,2-dihydroquinolin-6-yl)amino)pyrimidin-2-yl)ethynyl)piperidin-1-yl)methyl)-2-(2,6-dioxopiperidin-3-yl)isoindoline-1,3-dione] | ≥ 100 nM | < 50% | 10 to 50 nM |  |  | 
CC(=O)COc1cc2cc(Nc3nc(N4CCC(CN5CCN(c6ccc7c(c6)CN(C6CCC(=O)NC6=O)C7=O)CC5)CC4)ncc3Cl)ccc2n(C)c1=O (centres unmarked) [compound 175, 3-(5-(4-((1-(5-chloro-4-((1-methyl-2-oxo-3-(2-oxopropoxy)-1,2-dihydroquinolin-6-yl)amino)pyrimidin-2-yl)piperidin-4-yl)methyl)piperazin-1-yl)-1-oxoisoindolin-2-yl)piperidine-2,6-dione] | < 10 nM | 50 to 70% |  |  |  | 
CC(=O)COc1cc2cc(Nc3nc(N4CCC(CN(C)CC#Cc5ccc6c(c5)C(=O)N(C5CCC(=O)NC5=O)C6=O)CC4)ncc3Cl)ccc2n(C)c1=O (centres unmarked) [compound 176, 5-(3-(((1-(5-chloro-4-((1-methyl-2-oxo-3-(2-oxopropoxy)-1,2-dihydroquinolin-6-yl)amino)pyrimidin-2-yl)piperidin-4-yl)methyl)(methyl)amino)prop-1-yn-1-yl)-2-(2,6-dioxopiperidin-3-yl)isoindoline-1,3-dione] | ≥ 100 nM | < 50% |  |  |  | 
CNC(=O)COc1cc2cc(Nc3nc(N4CC5CC4CN5CC4CCN(c5ccc6c(c5)C(=O)N(C5CCC(=O)NC5=O)C6=O)CC4)ncc3Cl)ccc2n(C)c1=O (centres unmarked) [compound 195, 2-((6-((5-chloro-2-(5-((1-(2-(2,6-dioxopiperidin-3-yl)-1,3-dioxoisoindolin-5-yl)piperidin-4-yl)methyl)-2,5-diazabicyclo [2.2.1]heptan-2-yl)pyrimidin-4-yl)amino)-1-methyl-2-oxo-1,2-dihydroquinolin-3-yl)oxy)-N-methylacetamide] |  |  |  | < 10 nM | 10 to 50 nM | < 50%
CNC(=O)COc1cc2cc(Nc3cc(N4CCC(CN5CCN(c6ccc7c(c6)C(=O)N(C6CCC(=O)NC6=O)C7=O)CC5)CC4)ncc3Cl)ccc2n(C)c1=O (centres unmarked) [compound 197, 2-((6-((5-chloro-2-(4-((4-(2-(2,6-dioxopiperidin-3-yl)-1,3-dioxoisoindolin-5-yl)piperazin-1-yl)methyl)piperidin-1-yl)pyridin-4-yl)amino)-1-methyl-2-oxo-1,2-dihydroquinolin-3-yl)oxy)-N-methylacetamide] |  |  |  | 50 to 100 nM | 50 to 100 nM | 50 to 70%
CC(=O)COc1cc2cc(Nc3nc(N4CCC(CN5CC(C6CN(c7ccc8c(c7)C(=O)N(C7CCC(=O)NC7=O)C8=O)C6)C5)CC4)ncc3Cl)ccc2n(C)c1=O (centres unmarked) [compound 199, 5-(1′-((1-(5-chloro-4-((1-methyl-2-oxo-3-(2-oxopropoxy)-1,2-dihydroquinolin-6-yl)amino)pyrimidin-2-yl)piperidin-4-yl)methyl)-[3,3′-biazetidin]-1-yl)-2-(2,6-dioxopiperidin-3-yl)isoindoline-1,3-dione] |  |  |  | < 10 nM | 10 to 50 nM | 50 to 70%
CNC(=O)COc1cc2cc(Nc3nc(N4CCC(C(C)(C)N5CCN(c6ccc7c(c6)C(=O)N(C6CCC(=O)NC6=O)C7=O)CC5)CC4)ncc3Cl)ccc2n(C)c1=O (centres unmarked) [compound 200, 2-((6-((5-chloro-2-(4-(2-(4-(2-(2,6-dioxopiperidin-3-yl)-1,3-dioxoisoindolin-5-yl)piperazin-1-yl)propan-2-yl)piperidin-1-yl)pyrimidin-4-yl)amino)-1-methyl-2-oxo-1,2-dihydroquinolin-3-yl)oxy)-N-methylacetamide] |  |  |  | > 100 nM | 10 to 50 nM | 50 to 70%
CNC(=O)COc1cc2cc(Nc3nc(N4CCC(CN5CC6CC5CN6c5ccc6c(c5)C(=O)N(C5CCC(=O)NC5=O)C6=O)CC4)ncc3Cl)ccc2n(C)c1=O (centres unmarked) [compound 204, 2-((6-((5-chloro-2-(4-((5-(2-(2,6-dioxopiperidin-3-yl)-1,3-dioxoisoindolin-5-yl)-2,5-diazabicyclo [2.2.1]heptan-2-yl)methyl)piperidin-1-yl)pyrimidin-4-yl)amino)-1-methyl-2-oxo-1,2-dihydroquinolin-3-yl)oxy)-N-methylacetamide] |  |  |  | 10 to 50 nM | < 10 nM | < 50%
